Values quoted from earlier work in patent publication US10675364B2, “Rhodol fluorophores for near-infrared imaging” (The Board of Trustees of the Leland Stanford Junior …, priority 2015, dated 2020).

Details: highly sensitive to pH in the physiological range

## O=C1OC2(c3ccc(O)cc3Oc3cc(O)ccc32)c2ccccc21 [fluorescein]
  pKa: 6.3
